Test results taken from patent publication US20100029654A1, “CARDIOVASCULAR COMPOSITIONS AND USE OF THE SAME FOR THE TREATMENT OF ALZHEIMER'S DISEASE” (MOUNT SINAI SCHOOL OF MEDICINE, priority 2006, published 2010).
“Also recorded” adds a separate entry of the source. Where two headings read alike, the source gives them in different places.

Columns and labels:
[1] = system: Tg2576 mice; assay: Morris water maze test of spatial memory; type: in vivo, mouse
From the text: In the MWM assay, experimental animals are placed into a circular water tank and provided with a submerged “escape platform” at a specific location. Appropriate visual cues are located on a wall surrounding the water tank. Through repeated “learning trials”, normal animals typically learn to use the visual cues for spatial navigation and eventually require less time to swim to the platform as reflected by reducing escape latency.
Behavioral assessment of cognitive function by the Morris water maze test. […] At ˜11 months of age, mice were put into the water maze from 4 different quadrants; spatial memory was assessed by recording the average latency time for the animal to escape to the hidden platform. The behavior analysis was consistently conducted during the last 4 hours of the day portion of the light cycle in an environment with minimal stimuli (e.g., noise, movement, or changes in light or temperature).

[2] = system: primary cortico-hippocampal neuron cultures; assay: MTT in primary screening
[3] = system: γ-secretase; set-up: dose or concentration left out as unconfirmed; conditions: primary Tg2576 neuron cultures, 16 hours
[4] = target: β-secretase (Mus musculus, UniProt P56818); set-up: dose or concentration left out as unconfirmed; conditions: primary Tg2576 neuron cultures, 16 hours
Chain of β-secretase (P56818 46-501): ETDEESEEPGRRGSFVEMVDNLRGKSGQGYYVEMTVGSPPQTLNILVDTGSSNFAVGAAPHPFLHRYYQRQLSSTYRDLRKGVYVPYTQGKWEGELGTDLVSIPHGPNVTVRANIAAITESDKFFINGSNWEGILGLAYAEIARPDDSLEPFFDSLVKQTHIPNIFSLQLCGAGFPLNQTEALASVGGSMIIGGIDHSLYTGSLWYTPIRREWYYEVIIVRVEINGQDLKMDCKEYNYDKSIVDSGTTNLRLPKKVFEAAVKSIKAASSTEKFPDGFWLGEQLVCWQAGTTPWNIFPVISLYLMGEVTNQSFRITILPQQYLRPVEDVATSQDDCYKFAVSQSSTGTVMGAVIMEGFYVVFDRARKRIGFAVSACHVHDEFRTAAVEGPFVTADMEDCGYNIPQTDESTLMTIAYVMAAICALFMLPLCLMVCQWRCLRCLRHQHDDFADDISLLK

[5] = system: Aβ1-40; assay: Aβ1-40 content in conditioned medium of primary cortico-hippocampal neuron cultures from Tg2576 mice (ELISA; primary and secondary dose-response screening); type: cell-based, mouse; conditions: for Ab1-40 (% of ctl): drug 100 μM
How it was run: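 Primary cortico-hippocampal neurons from embryonic Tg2576 mice were plated at 1.0×10^5 cells per well on poly-D-lysine-coated 96-well plates in Neurobasal with 2% B27, 0.5 mM L-glutamine and 1% penicillin-streptomycin. Cultures received drug in 1% DMSO, and Aβ1-40 in the conditioned medium was measured by BioSource ELISA 24 hours after treatment, relative to vehicle controls.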

[6] = system: Tg2576 mice; assay: blood pressure (systolic, diastolic, MAP) by tail-cuff; type: in vivo, mouse
Protocol: FIG. 1 Tg2576 mice are characterized by normal blood pressure under basal conditions. Baseline measurements of systolic, diastolic blood pressure, and mean arteriole blood pressure (MAP) in ˜11 month old female Tg2576 mice. Strain-, age-, gender-matched WT mice were measured using a commercial blood pressure analysis system designed specifically for small rodents (Hatteras Instruments, NC). Following manufacturer's instruction, mice were temporarily immobilized in a restraining chamber and an inflated tail-cuff wrapped around the tail was used to measure the systolic pressure, diastolic pressure, and MAP. Each blood pressure determination was calculated as the mean of 10 individual measurements per animal (n=6-10 group).
FIG. 6A-C show body weight of mice in response to ˜3 weeks of treatment. […] FIG. 6D-F show the assessment of systolic, diastolic, and MAP blood pressure in Tg2576 mice in response to drug doses below or within the range of those prescribed in hypertension. Blood pressure measurements were conducted using a commercial blood pressure analysis system designed specifically for small rodents (Hatteras Instruments, NC). Following manufacturer's instruction, mice were temporarily immobilized in a restraining chamber and an inflated tail-cuff wrapped around the tail was used to measure pressures. Each blood pressure determination was calculated as the mean of 10 individual measurements per animal. In A-F, values represent mean±SEM values, n=3-5 mice per group. 2-tailed t-test: *P<0.05.
Assessment of blood pressure and glucose utilization. Mouse blood pressure was routinely recorded using a commercial blood pressure analysis system designed specifically for small rodents (Hatteras Instruments, NC). […] Briefly, mice were given a single dose of glucose post-prandially (i.p. 2 g/kg body weight). Blood was collected from the tail-vein periodically over a 2-hour period. Blood glycemic content was assessed using the OneTouch LifeScan System, (LifeScan, Milpitas, Calif.) following the manufacturer's instruction.

[7] = system: α-secretase; set-up: dose or concentration left out as unconfirmed; conditions: primary Tg2576 neuron cultures, 16 hours
[8] = valsartan concentration in blood (serum) by MRM mass spectrometry; type: in vivo, mouse; conditions: chronically valsartan-treated mice (40 mg/kg)
From the text: A series high throughput studies were initiated to assess and quantify antihypertensive drug levels and related metabolites in Tg 2576 and WT controls following in vivo treatments. […] Presently, using QSTAR (QqTOF) mass spectrometry, which delivers high sensitivity and resolution as well as unparalleled mass accuracy for determination of molecular weights of drugs and related metabolites at femtomole levels, the inventor is proceeding with studies aimed at detecting and eventually quantitating antihypertensive drugs and related metabolites in the brain or CSF. Thus, these technologies will accurate determination of the penetration of the blood brain barrier of candidate Aβ lowering antihypertensives in response to chronic treatments in vivo.

[9] = system: Aβ1-42; assay: Aβ1-42 content in conditioned medium of primary cortico-hippocampal neuron cultures from Tg2576 mice (ELISA; primary and secondary dose-response screening); type: cell-based, mouse
[10] = system: Tg2576 mice; assay: tolerability: body weight, fluid consumption, glucose tolerance
[11] = system: Aβ1-42; assay: Aβ1-42 content in conditioned medium of primary cortico-hippocampal neuron cultures from Tg2576 mice (ELISA; primary and secondary dose-response screening); type: cell-based, mouse; conditions: for Ab1-42 (% of ctl): drug 100 μM
How it was run: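 This screen tested cardiovascular drugs for Aβ-lowering in Tg2576 embryonic cortico-hippocampal neuron cultures plated at 1.0×10^5 cells per well in poly-D-lysine-coated 96-well plates with Neurobasal/B27 medium. Drugs at 100 μM were added directly to the medium in duplicate, with 1% DMSO alone as the control. Conditioned medium was then collected, and its Aβ1-42 level was quantified with BioSource ELISA kits.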

[12] = Primary Screening, table sorted by Aβ1-40
[13] = primary screening, Tg2576 neuron cultures, table sorted by Aβ1-42
[14] = valsartan 10 or 40 mg/kg/day in drinking water, chronic

N-(1-oxopentyl)-N-[[2-(1H-tetrazol-5-yl) [1,1-biphenyl]-4-yl]methyl]-L-valine [Valsartan]
escape latency in Morris water maze ([1]; Tg2576 mice, valsartan 10 and 40 mg/kg/day vs untreated): significant improvement in escape latency; also recorded: significantly reduced escape latency; also recorded: performed significantly better than untreated mice | spatial memory performance in Morris water maze ([1]; WT mice, valsartan 10 or 40 mg/kg/day): did not significantly influence spatial memory performance; also recorded: failed to influence spatial reference memory performance | MTT (% of ctl) [2, 12]: 67.4 % of ctl | MTT (% of ctl) ([2]; primary screening, table sorted by Aβ1-42): 67.4 % of ctl | γ-secretase activity [3]: no detectable change | β-secretase activity [4]: selectively inhibition of β-secretase activity | Ab1-40 (% of ctl) [5, 12]: 51.6 % of ctl | EC50 ([5]; Table IV, dose-response 0.01-100 μM, read-out: EC50 (M): Ab-lowering activity Abeta1-40): 1.44e-05 M | EC50 ([5]; conditioned medium of primary cortico-hippocampal neuron cultures from Tg2576 embryos, 24 hours after treatment, relative to vehicle (1% DMSO) control, read-out: EC50 (molar) Aβ1-40): 1.44e-05 M | reduced Aβ1-40 ([5]; primary screening, <85% of ctl): reduced Aβ1-40 | Ab1-40 (% of ctl) [5, 13]: 51.6 % of ctl | EC50 ([5]; secondary dose-response screening 0.01-100 μM, 24 hours, read-out: EC50 (molar) Aβ1-40): 1.44e-05 M | systolic, diastolic, MAP blood pressure ([6]; WT mice, valsartan): no detectable changes in systolic, diastolic, or MAP | systolic, diastolic, MAP blood pressure ([6]; normotensive Tg2576 mice, valsartan 10 or 40 mg/kg/day, chronic): did not significantly influence systolic, diastolic, or MAP; also recorded: did not influence systolic, diastolic, and MAP blood pressure; also recorded: failed to produce a statistically significant change | α-secretase activity [7]: no detectable change | steady state levels in the blood (serum) [8]: successfully detected steady state levels | EC50 ([9]; Table IV, dose-response 0.01-100 μM, read-out: EC50 (M): Ab-lowering activity Aβ1-42): 1.79e-05 M | EC50 ([9]; conditioned medium of primary cortico-hippocampal neuron cultures from Tg2576 embryos, 24 hours after treatment, relative to vehicle (1% DMSO) control, read-out: EC50 (molar) Aβ1-42): 1.79e-05 M | EC50 ([9]; secondary dose-response screening 0.01-100 μM, 24 hours, read-out: EC50 (molar) Aβ1-42): 1.79e-05 M | body weight [10, 14]: no detectable changes in body weight; also recorded: did not significantly influence animal body weight | fluid intake [10, 14]: did not significantly influence the amount of fluid intake | glucose-tolerance responses ([10]; valsartan 10 or 40 mg/kg/day, ~5 months): did not significantly influence | Ab1-42 (% of ctl) [11, 12]: 42.0 % of ctl | reducing Aβ1-42 ([11]; primary screening, <85% of ctl): useful in reducing Aβ1-42 | Ab1-42 (% of ctl) [11, 13]: 42.0 % of ctl
